Measured values taken from US20180057507A1, “INHIBITORS OF DUAL LEUCINE ZIPPER (DLK) KINASE FOR THE TREATMENT OF DISEASE” (Board of Regents, The University of Texas System, priority 2016, published 2018).

Biological target: T1, human DLK (Homo sapiens, UniProt Q12852)
T1 sequence (Q12852 1-859): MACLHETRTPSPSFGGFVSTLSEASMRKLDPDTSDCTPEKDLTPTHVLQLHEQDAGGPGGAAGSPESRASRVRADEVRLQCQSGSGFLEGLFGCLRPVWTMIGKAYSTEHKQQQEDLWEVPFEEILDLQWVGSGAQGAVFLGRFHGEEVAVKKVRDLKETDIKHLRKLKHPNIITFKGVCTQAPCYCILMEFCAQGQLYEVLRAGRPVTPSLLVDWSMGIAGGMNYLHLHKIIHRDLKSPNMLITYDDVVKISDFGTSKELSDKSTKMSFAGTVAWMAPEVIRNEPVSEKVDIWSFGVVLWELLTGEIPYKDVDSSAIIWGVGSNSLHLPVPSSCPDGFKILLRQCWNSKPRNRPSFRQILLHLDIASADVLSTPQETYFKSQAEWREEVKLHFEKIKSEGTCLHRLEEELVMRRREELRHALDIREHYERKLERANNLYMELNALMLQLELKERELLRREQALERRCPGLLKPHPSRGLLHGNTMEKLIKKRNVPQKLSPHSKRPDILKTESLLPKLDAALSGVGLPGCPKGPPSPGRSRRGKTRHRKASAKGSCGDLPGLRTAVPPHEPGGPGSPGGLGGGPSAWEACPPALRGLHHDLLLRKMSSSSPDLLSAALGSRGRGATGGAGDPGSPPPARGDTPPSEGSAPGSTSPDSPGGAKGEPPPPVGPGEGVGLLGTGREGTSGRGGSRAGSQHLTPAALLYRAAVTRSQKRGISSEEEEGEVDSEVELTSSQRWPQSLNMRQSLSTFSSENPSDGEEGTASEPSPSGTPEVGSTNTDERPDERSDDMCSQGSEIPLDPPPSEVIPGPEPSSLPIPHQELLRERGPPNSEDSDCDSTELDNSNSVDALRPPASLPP
Assay: DLK Kd Determinations (KINOMEscan KdELECT, DiscoveRx)
Design: full length of human DLK (amino acids 1-859); host or cells: transiently transfected HEK293 cells; unpurified extract
Settings: fusion protein of full length human DLK (amino acids 1-859) and NFkB DNA binding domain; qPCR readout; duplicate
Procedure: The DLK dissociation constants (Kd) have been determined in the KINOMEscan KdELECT Service at DiscoveRx.
A fusion protein of full length of human DLK (amino acids 1-859) and the DNA binding domain of NFkB was expressed in transiently transfected HEK293 cells. From these HEK 293 cells, extracts were prepared in M-PER extraction buffer (Pierce) in the presence of Protease Inhibitor Cocktail Complete (Roche) and Phosphatase Inhibitor Cocktail Set II (Merck) per manufacturers' instructions. The DLK fusion protein was labeled with a chimeric double-stranded DNA tag containing the NFkB binding site (5′-GGGAATTCCC-3′) fused to an amplicon for qPCR readout, which was added directly to the expression extract (the final concentration of DNA-tag in the binding reaction is 0.1 nM).
Streptavidin-coated magnetic beads (Dynal M280) were treated with a biotinylated small molecule ligand for 30 minutes at room temperature to generate affinity resins the binding assays. The liganded beads were blocked with excess biotin and washed with blocking buffer (SeaBlock (Pierce), 1% BSA, 0.05% Tween 20, 1 mM DTT) to remove unbound ligand and to reduce nonspecific binding.
Extracts were used directly in binding assays without any enzyme purification steps at a ≧10,000-fold overall stock dilution (final DNA-tagged enzyme concentration <0.1 nM). Extracts were loaded with DNA-tag and diluted into the binding reaction in a two step process. First extracts were diluted 1:100 in 1× binding buffer (PBS/0.05% Tween 20/10 mM DTT/0.1% BSA/2 μg/ml sonicated salmon sperm DNA) containing 10 nM DNA-tag. This dilution was allowed to equilibrate at room temperature for 15 minutes and then subsequently diluted 1:100 in 1× binding buffer. Test compounds were prepared as 111× stocks in 100% DMSO. Kds were determined using an 11-point 3-fold compound dilution series with three DMSO control points. All compounds for Kd measurements are distributed by acoustic transfer (non-contact dispensing) in 100% DMSO. The compounds were then diluted directly into the assays such that the final concentration of DMSO was 0.9%. All reactions performed in polypropylene 384-well plates. Each was a final volume of 0.02 mL. Assays were incubated with shaking for 1 hour at room temperature. Then the beads were pelleted and washed with wash buffer (1×PBS, 0.05% Tween 20) to remove displaced kinase and test compound. The washed based were re-suspended in elution buffer (1×PBS, 0.05% Tween 20, 0.5 μM non-biotinylated affinity ligand) and incubated at room temperature with shaking for 30 minutes. The kinase concentration in the eluates was measured by qPCR. qPCR reactions were assembled by adding 2.5 μL of kinase eluate to 7.5 μL of qPCR master mix containing 0.15 μM amplicon primers and 0.15 μM amplicon probe. The qPCR protocol consisted of a 10 minute hot start at 95° C., followed by 35 cycles of 95° C. for 15 seconds, 60° C. for 1 minute.
Test compounds were prepared as 111× stocks in 100% DMSO. Kds were determined using an 11-point 3-fold compound dilution series with three DMSO control points. All compounds for Kd measurements are distributed by acoustic transfer (non-contact dispensing) in 100% DMSO. The compounds were then diluted directly into the assays such that the final concentration of DMSO was 0.9%. The Kds were determined using a compound top concentration of 30,000 nM. Kd measurements were performed in duplicate.
Binding constants (Kds) were calculated with a standard dose-response curve using the Hill equation: […]
The Hill Slope was set to −1. Curves were fitted using a non-linear least square fit with the Levenberg-Marquardt algorithm (Levenberg, K., A method for the solution of certain non-linear problems in least squares, Q. Appl. Math. 2, 164-168 (1944)). See also Fabian, M. A. et al. A small molecule-kinase interaction map for clinical kinase inhibitors. Nat. Biotechnol. […]

SMILES	Kd [µM]
CC(=O)N1C[C@@H]2[C@H](C1)[C@H]2n1cc(-c2cnc(N)c(C(F)(F)F)c2)nc1C(C)C [Example 14, 1-(6-(4-(6-amino-5-(trifluoromethyl)pyridin-3-yl)-2-isopropyl-1H-imidazol-1-yl)-3-azabicyclo[3.1.0]hexan-3-yl)ethan-1-one]	0.17
Nc1ncc(-c2cn([C@H]3[C@@H]4CN(CC(F)F)C[C@@H]43)c(CC(F)(F)F)n2)cc1C(F)(F)F [Example 122, 5-(1-((1R,5S,6s)-3-(2,2-difluoroethyl)-3-azabicyclo[3.1.0]hexan-6-yl)-2-(2,2,2-trifluoroethyl)-1H-imidazol-4-yl)-3-(trifluoromethyl)pyridin-2-amine]	0.12
Nc1ncc(-c2cn(C3CC3)c(CC(F)(F)F)n2)cc1C(F)(F)F [Example 46, 5-(1-cyclopropyl-2-(2,2,2-trifluoroethyl)-1H-imidazol-4-yl)-3-(trifluoromethyl)pyridin-2-amine]	0.28
Nc1ncc(-c2cn([C@H]3[C@@H]4CNC[C@@H]43)c(C3CC3)n2)cc1OC(F)F [Example 96, 5-(1-((1R,5S,6s)-3-azabicyclo[3.1.0]hexan-6-yl)-2-cyclopropyl-1H-imidazol-4-yl)-3-(difluoromethoxy)pyridin-2-amine]	0.053
CC(C)c1nc(-c2cnc(N)c(OC(F)F)c2)cn1[C@H]1[C@@H]2CNC[C@@H]21 [Example 50, 5-(1-((1R,5S,6s)-3-azabicyclo[3.1.0]hexan-6-yl)-2-isopropyl-1H-imidazol-4-yl)-3-(difluoromethoxy)pyridin-2-amine]	0.17
Nc1ncc(-c2cn([C@H]3[C@@H]4CN(CC(F)F)C[C@@H]43)c(CC3CC3)n2)cc1OC(F)F [Example 89, 5-(2-(cyclopropylmethyl)-1-((1R,5S,6s)-3-(2,2-difluoroethyl)-3-azabicyclo[3.1.0]hexan-6-yl)-1H-imidazol-4-yl)-3-(difluoromethoxy)pyridin-2-amine]	0.29
CC(=O)N1C[C@@H]2[C@H](C1)[C@H]2n1cc(-c2cnc(N)c(C(F)(F)F)c2)nc1CC1CC1 [Example 114, 1-((1R,5S,6s)-6-(4-(6-amino-5-(trifluoromethyl)pyridin-3-yl)-2-(cyclopropylmethyl)-1H-imidazol-1-yl)-3-azabicyclo[3.1.0]hexan-3-yl)ethan-1-one]	0.066
CC(C)c1nc(-c2cnc(N)c(C(F)(F)F)c2)cn1[C@H]1[C@@H]2CC(N3CCOCC3)C[C@@H]21 (mixture of isomers) [Example 3, 5-(2-isopropyl-1-((1R,5S,6r)-3-morpholinobicyclo[3.1.0]hexan-6-yl)-1H-imidazol-4-yl)-3-(trifluoromethyl)pyridin-2-amine]	0.051
CC(C)c1nc(-c2cnc(N)c(C(F)(F)F)c2)cn1[C@H]1[C@@H]2CN(CC(F)F)C[C@@H]21 [Example 17, 5-(1-((1R,5S,6s)-3-(2,2-difluoroethyl)-3-azabicyclo[3.1.0]hexan-6-yl)-2-isopropyl-1H-imidazol-4-yl)-3-(trifluoromethyl)pyridin-2-amine]	0.17
Nc1ncc(-c2cn([C@H]3[C@@H]4CN(CCF)C[C@@H]43)c(CC(F)(F)F)n2)cc1C(F)(F)F [Example 123, 5-(1-((1R,5S,6s)-3-(2-fluoroethyl)-3-azabicyclo[3.1.0]hexan-6-yl)-2-(2,2,2-trifluoroethyl)-1H-imidazol-4-yl)-3-(trifluoromethyl)pyridin-2-amine]	0.065
CC(C)n1cc(-c2cnc(N)c(C(F)(F)F)c2)nc1C1CC1 [Example 8, 5-[2-cyclopropyl-1-(propan-2-yl)-1H-imidazol-4-yl]-3-(trifluoromethyl)pyridin-2-amine]	0.13
Nc1ncc(-c2cn([C@H]3[C@@H]4CN(CC(F)F)C[C@@H]43)c(C3CC3)n2)cc1OC(F)F [Example 103, 5-(2-cyclopropyl-1-((1R,5S,6s)-3-(2,2-difluoroethyl)-3-azabicyclo[3.1.0]hexan-6-yl)-1H-imidazol-4-yl)-3-(difluoromethoxy)pyridin-2-amine]	0.092
COCCN1C[C@@H]2[C@H](C1)[C@H]2n1cc(-c2cnc(N)c(C(F)(F)F)c2)nc1C(C)C [Example 15, 5-(2-isopropyl-1-((1R,5S,6s)-3-(2-methoxyethyl)-3-azabicyclo[3.1.0]hexan-6-yl)-1H-imidazol-4-yl)-3-(trifluoromethyl)pyridin-2-amine]	0.21
CC(C)c1nc(-c2cnc(N)c(C(F)(F)F)c2)cn1[C@H]1C[C@H](F)C1 [Example 25, 5-(1-((1r,3r)-3-fluorocyclobutyl)-2-isopropyl-1H-imidazol-4-yl)-3-(trifluoromethyl)pyridin-2-amine]	0.2
CC(C)c1nc(-c2cnc(N)c(C(F)(F)F)c2)cn1Cc1ccccn1 [Example 30, 5-(2-isopropyl-1-(pyridin-2-ylmethyl)-1H-imidazol-4-yl)-3-(trifluoromethyl)pyridin-2-amine]	1.5
Nc1ncc(-c2cn([C@H]3[C@@H]4CN(CC(F)(F)F)C[C@@H]43)c(C3CC3)n2)cc1OC(F)F [Example 108, 5-(2-cyclopropyl-1-((1R,5S,6s)-3-(2,2,2-trifluoroethyl)-3-azabicyclo[3.1.0]hexan-6-yl)-1H-imidazol-4-yl)-3-(difluoromethoxy)pyridin-2-amine]	0.14
Nc1ncc(-c2cn([C@H]3[C@@H]4CN(CC(F)(F)F)C[C@@H]43)c(C3CC3)n2)cc1C(F)(F)F [Example 93, 5-(2-cyclopropyl-1-((1R,5S,6s)-3-(2,2,2-trifluoroethyl)-3-azabicyclo[3.1.0]hexan-6-yl)-1H-imidazol-4-yl)-3-(trifluoromethyl)pyridin-2-amine]	0.27
CC(C)c1nc(-c2cnc(N)c(C(F)(F)F)c2)cn1C1CC(F)(F)C1 [Example 26, 5-(1-(3,3-difluorocyclobutyl)-2-isopropyl-1H-imidazol-4-yl)-3-(trifluoromethyl)pyridin-2-amine]	0.4
Nc1ncc(-c2cn([C@H]3[C@@H]4CN(CC(F)F)C[C@@H]43)c(C3CC3)n2)cc1C(F)(F)F [Example 75, 5-(2-cyclopropyl-1-((1R,5S,6s)-3-(2,2-difluoroethyl)-3-azabicyclo[3.1.0]hexan-6-yl)-1H-imidazol-4-yl)-3-(trifluoromethyl)pyridin-2-amine]	0.056
